Our source for the IC50 values is patent publication US10363257B2 (ZENITH EPIGENETICS LTD., priority 2013, dated 2019).

pIC50: −log10 of the molar value.

The test system of one experiment is hIL-6 mRNA. The experiment can be described thus: Inhibition of hIL-6 mRNA transcription in LPS-stimulated U937 cells. The experiment is classed as cell-based. The note with it: Homo sapiens, U-937; PMA-differentiated U937 cells, 1 h pretreatment, 1 ug/mL LPS stimulation, 3 h; read-out: IL-6 activity (Inhibition of hIL-6 mRNA Transcription). In short, it runs like this:
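U937 cells differentiated 3 days with 60 ng/mL PMA, pretreated 1 h with compound (0.1% DMSO), then stimulated with 1 ug/mL E. coli LPS for 3 h at 37 °C. hIL-6 mRNA measured by one-step TaqMan RT-qPCR, normalized to cyclophilin. Fold expression relative to control; triplicate wells.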

In experiment [1] the target is T1, Brd4 bromodomain 1 (BRD4(1)) (Homo sapiens, UniProt O60885).
T1 construct: made in house; host or cells: E. coli BL21(DE3)
The experiment can be described thus: Inhibition of tetra-acetylated histone H4 binding to Brd4 bromodomain 1 (TR-FRET). The note with it: tetra-acetylated histone H4 peptide, first bromodomain of Brd4. The gist of the method:
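His-tagged BRD4(1) from E. coli (200 nM) with biotinylated tetra-acetylated H4 peptide (25-50 nM), Eu-cryptate streptavidin and XL665 anti-His, in HEPES pH 7.4/phosphate/KF buffer, 0.2% DMSO. After 2 h at room temperature, TR-FRET 665/620 nm ratio read; IC50 from dose-response curves.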

The next experiment deals with hIL-17 mRNA. The experiment can be described thus: Inhibition of hIL-17 mRNA transcription in OKT3-stimulated peripheral blood mononuclear cells. It is filed as cell-based. The following applies: PBMC, human peripheral blood mononuclear cells, OKT3 antibody, 6 h, read-out: IL-17 activity. As to the method: In this example, hIL-17 mRNA in human peripheral blood mononuclear cells was quantitated to measure the transcriptional inhibition of hIL-17 when treated with a compound of the invention.
Human peripheral blood mononuclear cells were plated (2.0×10^5 cells per well) in a 96-well plate in 45 μL OpTimizer T Cell expansion media containing 20 ng/ml IL-2 and penicillin/streptomycin. The cells were treated with the test compound (45 μL at 2× concentration), and then the cells were incubated at 37° C. for 1 h before addition of 10× stock OKT3 antibody at 10 μg/ml in media. Cells were incubated at 37° C. for 6 h before the cells were harvested. At time of harvest, cells were centrifuged (800 rpm, 5 min). Spent media was removed and cell lysis solution (70 μL) was added to the cells in each well and incubated for 5-10 min at room temperature, to allow for complete cell lysis and detachment. mRNA was then prepared using the “mRNA Catcher PLUS plate” (Invitrogen), according to the protocol supplied. After the last wash, as much wash buffer as possible was aspirated without allowing the wells to dry. Elution buffer (E3, 70 μL) was then added to each well. mRNA was then eluted by incubating the mRNA Catcher PLUS plate with Elution Buffer for 5 min at 68° C. and then immediately placing the plate on ice.
The eluted mRNA isolated was then used in a one-step quantitative RT-PCR reaction, using components of the Ultra Sense Kit together with Applied Biosystems primer-probe mixes. Real-time PCR data was analyzed, normalizing the Ct values for hIL-17 to an internal control, prior to determining the fold induction of each unknown sample, relative to the control.

The test system of another experiment is human AML MV-4-11 cells. The experiment can be described thus: Inhibition of cell proliferation in MV4-11 cells (CellTiter Aqueous One). The experiment is classed as cell-based. The following applies: MV4-11, 72 h. In short, it runs like this: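 Exponentially growing MV-4-11 cells (5×10^4/well) were treated immediately with two-fold dilutions of compound from 30 μM to 0.2 μM, in triplicate, for 72 h at 37° C, 5% CO2. Viability was measured by MTS absorbance at 490 nm after 3–4 h. Proliferation relative to DMSO after blank correction gave IC50.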

The next experiment concerns c-myc. The experiment can be described thus: Inhibition of c-myc expression (mRNA, real-time PCR) in MV4-11 cells. The following applies: Human AML MV4-11 cells, 3 h, cMYC mRNA. The experiment is classed as cell-based. The gist of the method: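 MV4-11 cells treated 3 h at 37° C with increasing compound concentrations or 0.1% DMSO, in triplicate. cMYC mRNA quantified by one-step TaqMan real-time PCR, Ct normalized to internal control (Cyclophilin primers used), fold expression relative to control.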
A general note: Real-time PCR tracks product formation cycle by cycle.

Consider `Cc1noc(C)c1-c1cnc2nc(C)n(Cc3ccccc3)c2c1` [Example Compound 13, 4-(1-benzyl-2-methyl-1H-imidazo[4,5-b]pyridin-6-yl)-3,5-dimethylisoxazole], for which the pIC50 was not below 6.52 in the experiment on hIL-6 mRNA; not below 6.52 in experiment [1]; 5.52 to 6.52 in the experiment on hIL-17 mRNA; 5.52 to 6.52 in the experiment with human AML MV-4-11 cells; 5.52 to 6.52 with c-myc.
Consider `Cc1noc(C)c1-c1cc(N)c2[nH]c(=O)n(Cc3ccccc3)c2c1` [Example Compound 16, 4-amino-1-benzyl-6-(3,5-dimethylisoxazol-4-yl)-1H-benzo[d]imidazol-2(3H)-one], for which the pIC50 in the experiment on hIL-6 mRNA was not below 6.52; in experiment [1], not below 6.52; in the experiment on hIL-17 mRNA, 5.52 to 6.52; with human AML MV-4-11 cells, not below 6.52; in the experiment with c-myc, not below 6.52.
For the compound `CCNc1nc2c([N+](=O)[O-])cc(-c3c(C)noc3C)cc2n1Cc1ccccc1` [Example Compound 18, 1-benzyl-6-(3,5-dimethylisoxazol-4-yl)-N-ethyl-4-nitro-1H-benzo[d]imidazol-2-amine], the pIC50 in the experiment on hIL-6 mRNA was 5.52 to 6.52; in experiment [1], not below 6.52; in the experiment on hIL-17 mRNA, 5.52 to 6.52; with human AML MV-4-11 cells, not below 6.52; with c-myc, not below 6.52.
On to `CCNc1nc2c(N)cc(-c3c(C)noc3C)cc2n1Cc1ccccc1` [Example Compound 19, 1-benzyl-6-(3,5-dimethylisoxazol-4-yl)-N^2-ethyl-1H-benzo[d]imidazole-2,4-diamine], for which the pIC50 (in the experiment with hIL-6 mRNA; in experiment [1]; in the experiment on hIL-17 mRNA; in the experiment on human AML MV-4-11 cells; in the experiment with c-myc) was not below 6.52 throughout.
As for `Cc1noc(C)c1-c1cnc2ncn(C(C)c3ccccc3)c2c1` (stereo not drawn) [Example Compound 30], the pIC50 in the experiment on hIL-6 mRNA was 5.52 to 6.52; in experiment [1] it was not below 6.52; with hIL-17 mRNA, 5.52 to 6.52; with human AML MV-4-11 cells it was 5.52 to 6.52; in the experiment with c-myc, 5.52 to 6.52.
Take `Cc1noc(C)c1-c1cnc2ncn(Cc3ccc(F)cc3)c2c1` [Example Compound 45, 4-(1-(4-fluorobenzyl)-1H-imidazo[4,5-b]pyridin-6-yl)-3,5-dimethylisoxazole]: the pIC50 in the experiment with hIL-6 mRNA was 5.52 to 6.52; in experiment [1] it was not below 6.52; in the experiment on hIL-17 mRNA, 5.52 to 6.52; in the experiment with human AML MV-4-11 cells, 5.52 to 6.52; in the experiment on c-myc, 5.52 to 6.52.
For the compound `Cc1noc(C)c1-c1cnc2cnn(Cc3ccc(F)cc3)c2c1` [Example Compound 51, 4-(1-(4-fluorobenzyl)-1H-pyrazolo[4,3-b]pyridin-6-yl)-3,5-dimethylisoxazole], the pIC50 was 5.52 to 6.52 in the experiment with hIL-6 mRNA; not below 6.52 in experiment [1]; 5.52 to 6.52 in the experiment with hIL-17 mRNA; 5.52 to 6.52 with human AML MV-4-11 cells; 5.52 to 6.52 in the experiment on c-myc.
On to `Cc1noc(C)c1-c1cc(N)c2nc(C)n(Cc3ccccc3)c2c1` [Example Compound 55, 1-benzyl-6-(3,5-dimethylisoxazol-4-yl)-2-methyl-1H-benzo[d]imidazol-4-amine], for which the pIC50 (in the experiment on hIL-6 mRNA; in experiment [1]; in the experiment with hIL-17 mRNA; with human AML MV-4-11 cells; in the experiment on c-myc) was not below 6.52 each time.
Take `CC(=O)Nc1cc(-c2c(C)noc2C)cc2c1nc(C)n2Cc1ccccc1` [Example Compound 64, N-(1-benzyl-6-(3,5-dimethylisoxazol-4-yl)-2-methyl-1H-benzo[d]imidazol-4-yl)acetamide]: the pIC50 in the experiment with hIL-6 mRNA was not below 6.52; in experiment [1], not below 6.52; in the experiment on hIL-17 mRNA, not below 6.52; in the experiment on human AML MV-4-11 cells, 5.52 to 6.52; in the experiment with c-myc, not below 6.52.
As to `Cc1noc(C)c1-c1cnc2[nH]c(=O)n(Cc3ccc(Cl)cc3)c2c1` [compound 105, 1-(4-chlorobenzyl)-6-(3,5-dimethylisoxazol-4-yl)-1H-imidazo[4,5-b]pyridin-2(3H)-one], the pIC50 in the experiment on hIL-6 mRNA was 5.52 to 6.52; in experiment [1], not below 6.52; in the experiment with hIL-17 mRNA it was 5.52 to 6.52; in the experiment with human AML MV-4-11 cells, 5.52 to 6.52; with c-myc it was 5.52 to 6.52.
Consider `Cc1noc(C)c1-c1cnc2[nH]c(=O)n(Cc3cccs3)c2c1` [compound 106, 6-(3,5-dimethylisoxazol-4-yl)-1-(thiophen-2-ylmethyl)-1H-imidazo[4,5-b]pyridin-2(3H)-one], for which the pIC50 in the experiment with hIL-6 mRNA was 5.52 to 6.52; in experiment [1], not below 6.52; with hIL-17 mRNA, 5.52 to 6.52; in the experiment on human AML MV-4-11 cells it was 5.52 to 6.52; with c-myc it was 5.52 to 6.52.
Consider `Cc1noc(C)c1-c1cnc2[nH]c(=O)n(C(C)c3ccccc3)c2c1` (stereo not drawn) [compound 112, 6-(3,5-dimethylisoxazol-4-yl)-1-(1-phenylethyl)-1H-imidazo[4,5-b]pyridin-2(3H)-one], for which the pIC50 is 5.52 to 6.52 with hIL-6 mRNA; not below 6.52 in experiment [1]; not below 6.52 in the experiment with hIL-17 mRNA; 5.52 to 6.52 in the experiment on human AML MV-4-11 cells; not below 6.52 in the experiment with c-myc.
